Test results: paper PMC11921146, “Heterologous production of corosolic acid, a phyto-insulin, in agroinfiltrated Nicotiana benthamiana leaves” (Plant Biotechnology, 2024)

Tests used:
Experiment in all cases: transient co-expression in N. benthamiana leaves, GC-MS of leaf extracts
Format in all cases: cell-based
Details in all cases: alpha-amyrin formed in situ by BfOSC3; co-expressed AtHMGR1cd-S577A and LjCPR2; C-28 oxidation
[1] = target: T1, MtCYP716A12 (Medicago truncatula, UniProt Q2MJ20)
T1 construct: gene CYP716A12; full-length; transient expression in N. benthamiana leaves (pBYR2HS)

[2] = target: T2, MtCYP716A12 (Medicago truncatula, UniProt Q2MJ20, D122Q/Q358P)
T2 construct: gene CYP716A12; full-length; transient expression in N. benthamiana leaves (pBYR2HS)

[3] = target: T3, MtCYP716A12 (Medicago truncatula, UniProt Q2MJ20, D122Q)
T3 construct: gene CYP716A12; full-length; transient expression in N. benthamiana leaves (pBYR2HS)

[4] = target: T4, OeCYP716A48 (Olea europaea, UniProt A0A090AQE0)
T4 construct: gene CYP716A48; full-length; transient expression in N. benthamiana leaves (pBYR2HS)
T4 sequence (A0A090AQE0 entry or part of it): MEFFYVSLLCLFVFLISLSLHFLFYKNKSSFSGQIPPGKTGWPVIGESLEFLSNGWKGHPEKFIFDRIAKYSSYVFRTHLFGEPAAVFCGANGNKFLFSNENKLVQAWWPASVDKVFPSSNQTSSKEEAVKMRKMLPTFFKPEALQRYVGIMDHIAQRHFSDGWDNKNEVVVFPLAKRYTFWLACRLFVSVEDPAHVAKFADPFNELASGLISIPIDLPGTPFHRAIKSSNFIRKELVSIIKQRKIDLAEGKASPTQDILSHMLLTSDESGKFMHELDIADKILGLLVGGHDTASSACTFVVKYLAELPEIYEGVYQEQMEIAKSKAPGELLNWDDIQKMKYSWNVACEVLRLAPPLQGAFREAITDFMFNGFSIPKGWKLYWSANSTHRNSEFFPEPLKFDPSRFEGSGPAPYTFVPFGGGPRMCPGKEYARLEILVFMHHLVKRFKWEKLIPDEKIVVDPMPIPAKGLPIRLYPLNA

T2 sequence (Q2MJ20 whole entry D122Q/Q358P, the tested form may be a part): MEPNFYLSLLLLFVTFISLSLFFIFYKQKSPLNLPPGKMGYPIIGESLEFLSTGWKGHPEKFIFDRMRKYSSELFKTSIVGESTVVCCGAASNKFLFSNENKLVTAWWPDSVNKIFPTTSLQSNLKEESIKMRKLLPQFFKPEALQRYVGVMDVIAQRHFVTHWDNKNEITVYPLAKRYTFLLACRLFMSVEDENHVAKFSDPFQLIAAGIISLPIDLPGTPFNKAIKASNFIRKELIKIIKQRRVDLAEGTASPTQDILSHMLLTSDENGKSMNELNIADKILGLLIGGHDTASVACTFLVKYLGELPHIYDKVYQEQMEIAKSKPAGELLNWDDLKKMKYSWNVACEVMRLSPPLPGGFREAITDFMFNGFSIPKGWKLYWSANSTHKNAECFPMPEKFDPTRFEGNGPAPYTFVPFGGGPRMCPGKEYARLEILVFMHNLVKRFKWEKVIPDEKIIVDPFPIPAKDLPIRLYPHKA
T1 sequence (Q2MJ20 whole entry, the tested form may be a part): as the sequence (Q2MJ20 whole entry D122Q/Q358P, the tested form may be a part) above, with Q122D, P358Q counted along it
T3 sequence (Q2MJ20 whole entry D122Q, the tested form may be a part): as the sequence (Q2MJ20 whole entry D122Q/Q358P, the tested form may be a part) above, with P358Q counted along it

For `C[C@H]1[C@H](C)CC[C@]2(C)CC[C@]3(C)C(=CC[C@@H]4[C@@]5(C)CC[C@H](O)C(C)(C)[C@@H]5CC[C@]43C)[C@H]12` [compound 1, α-amyrin], the “transient co-expression in N. benthamiana leaves, GC-MS of leaf extracts” value (shortened to “transient co-expression”) [1] was “detected in the leaves expressing wild-type MtCYP716A12”, the “transient co-expression” value [2] was “each of the candidate CYP716As were mixed and infiltrated into N. benthamiana leaves” and the “transient co-expression” value [3] was “each of the candidate CYP716As were mixed and infiltrated into N. benthamiana leaves”. The “transient co-expression” value [4] was “each of the candidate CYP716As were mixed and infiltrated into N. benthamiana leaves”.
